Assay [1] has as its target T1, human serotonin transporter (hSERT) (Homo sapiens, UniProt P31645).
T1 construct: expressed in transfected cells; host or cells: HEK-293 cells (membrane preparation)
Kind of assay: hSERT receptor binding ([125I]-RTI-55 displacement, membranes of transfected HEK-293 cells). The conditions noted are these: HEK-293 membranes, Ki from IC50 by Cheng-Prusoff, read-out: SERT Ki. As to the method: (§1) The ability of the compounds of the present invention to inhibit a norepinephrine transporter and/or a serotonin transporter can be determined using conventional radioligand receptor transport assays. The receptors can be heterologously expressed in cell lines and experiments conducted in membrane preparations from the cell lines that express a norepinephrine transporter and/or a serotonin transporter.
Cell pastes of HEK-293 cells transfected with a human serotonin transporter cDNA were prepared. The cell pastes were resuspended in 400 to 700 ml of Krebs-HEPES assay buffer (25 mM HEPES, 122 mM NaCl, 3 mM KCl, 1.2 mM MgSO4, 1.3 mM CaCl2, and 11 mM glucose, pH 7.4) with a Polytron homogenizer at Setting 7 for 30 seconds. Aliquots of membranes (˜2.5 mg/ml protein) were stored in liquid nitrogen until used.
Assays were set up in FlashPlates pre-coated with 0.1% PEI in a total volume of 250 μl containing: test compound (10^−5M to 10^−12M), cell membranes, and 50 pM [^125I]-RTI-55 (Perkin Elmer, NEX-272; specific activity 2200 Ci/mmol). The reaction was incubated and gently agitated for 90 minutes at room temperature, and terminated by removal of assay volume. Plates were covered, and bound [^125I]-RTI-55 was determined using a Wallac Trilux Beta Plate Counter. Test compounds were run in duplicate, and specific binding was defined as the difference between binding in the presence and absence of 10 μM citalopram.
Excel and GraphPad Prism software were used for data calculation and analysis. IC50 values were converted to Ki values using the Cheng-Prusoff equation. The Ki values (nM) for the hSERT are reported below in Table 11: […]

The target in assay [2] is T2, human norepinephrine transporter (hNET) (Homo sapiens, UniProt P23975).
T2 construct: expressed in transfected cells; host or cells: HEK-293 cells (membrane preparation)
Kind of assay: hNET receptor binding ([125I]-RTI-55 displacement, membranes of transfected HEK-293 cells). The conditions noted are these: HEK-293 membranes, Ki from IC50 by Cheng-Prusoff, read-out: NET Ki.
Text: as §1
Cell pastes of HEK-293 cells transfected with a human norepinephrine transporter cDNA were prepared. The cell pastes were resuspended in 400 to 700 ml of Krebs-HEPES assay buffer (25 mM HEPES, 122 mM NaCl, 3 mM KCl, 1.2 mM MgSO4, 1.3 mM CaCl2, and 11 mM glucose, pH 7.4) with a Polytron homogenizer at setting 7 for 30 seconds. Aliquots of membranes (5 mg/ml protein) were stored in liquid nitrogen until used.
The binding assay was set up in Beckman deep-well polypropylene plates with a total volume of 250 μl containing: test compound (10^−5M to 10^−12M), cell membranes, and 50 pM [^125I]-RTI-55 (Perkin Elmer, NEX-272; specific activity 2200 Ci/mmol). The reaction was incubated by gentle agitation for 90 minutes at room temperature and was terminated by filtration through Whatman GF/C filter plates using a Brandel 96-well plate harvester. Scintillation fluid (100 μl) was added to each well, and bound [^125I]-RTI-55 was determined using a Wallac Trilux Beta Plate Counter. Test compounds were run in duplicate, and specific binding was defined as the difference between binding in the presence and absence of 10 μM desipramine.
Excel and GraphPad Prism software were used for data calculation and analysis. IC50 values were converted to Ki values using the Cheng-Prusoff equation. The Ki values (nM) for the hNET are reported below in Table 11.

Structures can show the parent of a compound that is named as a salt.

What is called Ki is the dissociation constant of the complex between target and ligand, obtained from inhibition or displacement.

T2 sequence (P23975 whole entry): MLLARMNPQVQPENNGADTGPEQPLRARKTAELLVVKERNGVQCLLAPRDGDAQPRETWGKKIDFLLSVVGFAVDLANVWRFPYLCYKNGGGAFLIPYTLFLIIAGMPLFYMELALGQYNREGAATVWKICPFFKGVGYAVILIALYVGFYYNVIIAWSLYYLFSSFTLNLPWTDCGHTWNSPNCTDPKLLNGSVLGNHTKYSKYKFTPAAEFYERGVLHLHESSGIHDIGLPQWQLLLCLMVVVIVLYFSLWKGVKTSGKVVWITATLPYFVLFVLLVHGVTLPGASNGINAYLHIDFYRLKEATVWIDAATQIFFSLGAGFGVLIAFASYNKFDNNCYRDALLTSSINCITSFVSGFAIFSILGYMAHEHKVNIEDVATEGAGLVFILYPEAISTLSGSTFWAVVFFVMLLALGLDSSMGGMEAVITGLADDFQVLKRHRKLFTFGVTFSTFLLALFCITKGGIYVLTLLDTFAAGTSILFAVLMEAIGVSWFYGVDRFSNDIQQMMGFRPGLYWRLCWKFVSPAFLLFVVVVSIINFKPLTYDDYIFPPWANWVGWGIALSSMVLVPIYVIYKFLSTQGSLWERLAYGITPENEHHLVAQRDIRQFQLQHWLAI
T1 sequence (P31645 whole entry): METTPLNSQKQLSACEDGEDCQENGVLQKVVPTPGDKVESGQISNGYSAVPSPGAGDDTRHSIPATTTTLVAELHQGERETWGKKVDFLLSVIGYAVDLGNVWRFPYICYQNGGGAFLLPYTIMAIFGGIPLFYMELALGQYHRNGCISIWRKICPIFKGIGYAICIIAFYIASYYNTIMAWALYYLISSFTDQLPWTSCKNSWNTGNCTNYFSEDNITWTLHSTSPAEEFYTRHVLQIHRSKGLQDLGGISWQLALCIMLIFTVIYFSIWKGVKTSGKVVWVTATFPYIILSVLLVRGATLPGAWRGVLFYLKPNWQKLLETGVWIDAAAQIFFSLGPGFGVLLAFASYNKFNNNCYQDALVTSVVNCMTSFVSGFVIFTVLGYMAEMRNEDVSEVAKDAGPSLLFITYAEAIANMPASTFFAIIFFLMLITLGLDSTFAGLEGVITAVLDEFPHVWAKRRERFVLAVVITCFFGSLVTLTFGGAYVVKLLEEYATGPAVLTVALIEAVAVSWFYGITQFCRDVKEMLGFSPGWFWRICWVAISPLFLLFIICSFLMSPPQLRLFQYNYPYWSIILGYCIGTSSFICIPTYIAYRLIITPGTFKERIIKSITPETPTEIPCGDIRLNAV

With `Fc1ccc(-n2nc(OC3CCNCC3)c3ccccc32)cc1F` [Example 34, 1-(3,4-Difluoro-phenyl)-3-(piperidin-4-yloxy)-1H-indazole hydrochloride], the values for the inhibition constant (Ki) in assay [1] and in assay [2] were 81 nM and 30 nM, respectively.
For `Fc1ccc2c(c1)c(OC[C@@H]1CNCCO1)nn2-c1ccccc1F` [Example 46, (S)-(+)-5-Fluoro-1-(2-fluorophenyl)-3-(morpholin-2-ylmethoxy)-1H-indazole maleate], the figures for the Ki in assay [1] and in assay [2] were 413 nM and 5.7 nM, respectively.
In the case of `c1ccc(-n2nc(OC[C@@H]3CCCNC3)c3ccccc32)cc1` [Example 18, (R)-(+)-1-Phenyl-3-(piperidin-3-ylmethoxy)-1H-indazole hydrochloride], the values for the Ki in assay [1] and in assay [2] were 121 nM and 95.5 nM, respectively.
In the same order, the values of `c1ccc(-n2nc(OC[C@H]3CCCNC3)c3ccccc32)nc1` [Example 44, (S)-(−)-3-(Piperidin-3-ylmethoxy)-1-pyridin-2-yl-1H-indazole maleate] are 365 nM and 100 nM.
Consider `Fc1ccc(F)c(-n2nc(OC3CCNCC3)c3cc(F)ccc32)c1` [Example 39, 1-(2,5-Difluoro-phenyl)-5-fluoro-3-(piperidin-4-yloxy)-1H-indazole hydrochloride], for which the figures for the inhibition constant (Ki) in assay [1] and in assay [2] were 34.4 nM and 9.57 nM, respectively.
In the same order, the values of `Fc1cccc(-n2nc(OCC3CCCNC3)c3ccccc32)c1` (racemic) [Example 66, (±)-1-(3-Fluoro-phenyl)-3-(piperidin-3-ylmethoxy)-1H-indazole hydrochloride] are 120 nM and 16.9 nM.
Turning to `Fc1ccc(-n2nc(OC[C@@H]3CNCCO3)c3ccccc32)c(F)c1` [Example 3, (S)-(+)-1-(2,4-Difluorophenyl)-3-(morpholin-2-ylmethoxy)-1H-indazole maleate], the Ki was determined as 832 nM in assay [1] and 3.4 nM in assay [2].
As for `Fc1ccc2c(c1)c(OC1CCNCC1)nn2-c1ccc(F)c(F)c1` [Example 97, 1-(3,4-Difluoro-phenyl)-5-fluoro-3-(piperidin-4-yloxy)-1H-indazole hydrochloride], the Ki in assay [1] came out at 39.5 nM; in assay [2], 28.5 nM.
Consider `c1ccc(-n2nc(OC[C@H]3CCNC3)c3ccccc32)cc1` [Example 22, (S)-1-Phenyl-3-(pyrrolidin-3-ylmethoxy)-1H-indazole hydrochloride], for which the inhibition constant (Ki) was 68.2 nM in assay [1] and 25.7 nM in assay [2].
For `Fc1ccc(-n2nc(OC[C@@H]3CCNC3)c3c(F)cccc32)c(F)c1` [Example 92, (R)-1-(2,4-Difluoro-phenyl)-4-fluoro-3-(pyrrolidin-3-ylmethoxy)-1H-indazole hydrochloride], the Ki in assay [1] stood at 126 nM; in assay [2] it was 28.5 nM.
With `c1ccc(-n2nc(OC3CCCNC3)c3ccccc32)cc1` (racemic) [Example 15, (±)-1-Phenyl-3-(piperidin-3-yloxy)-1H-indazole hydrochloride], the Ki in assay [1] is 1460 nM; in assay [2], 329 nM.
As for `Fc1ccc(-n2nc(OC[C@@H]3CNCCO3)c3c(F)cccc32)c(F)c1` [Example 94, (S)-1-(2,4-Difluoro-phenyl)-4-fluoro-3-(morpholin-2-ylmethoxy)-1H-indazole hydrochloride], the Ki in assay [1] came to 2850 nM; in assay [2], 40.2 nM.
As to `Fc1ccccc1-n1nc(OC[C@@H]2CNCCO2)c2c(F)cccc21` [Example 98, (S)-(+)-4-Fluoro-1-(2-fluorophenyl)-3-(morpholin-2-ylmethoxy)-1H-indazole maleate], the Ki in assay [1] was 3860 nM; in assay [2], 27.3 nM.
In the same order, the values of `Fc1ccc(-n2nc(OC3CCNCC3)c3ccccc32)c(F)c1` [Example 10, 1-(2,4-Difluoro-phenyl)-3-(piperidin-4-yloxy)-1H-indazole hydrochloride] are 36.1 nM and 14.3 nM.
For `Clc1ccc2c(OC3CCNCC3)nn(-c3ccccc3)c2c1` [Example 64, 6-Chloro-1-phenyl-3-(piperidin-4-yloxy)-1H-indazole hydrochloride], in that order: 272 nM and 512 nM.

For the origin of these results see patent US7423054B2, “Therapeutic pyrazolo[3,4-b]pyridines and indazoles” (Warner Lambert Company LLC, priority 2004, dated 2008).
